From PMC12406685, “Thiazole substitution of a labile amide bond—a new option toward antiplasmodial pantothenamide-mimics” (Antimicrobial Agents and Chemotherapy, 2025)
Like-named read-outs stand apart in the source and are kept apart here.

Key:
[1] = tested on: intraerythrocytic P. falciparum; test: In vitro parasite proliferation assay (SYBR Safe-based fluorescence); assay type: cell-based, Plasmodium falciparum (3D7 strain); settings: for IC50: Plasmodium falciparum, intraerythrocytic stage, 96 h; for Antiplasmodial IC50 range, in words: 1 µM pantothenate
Protocol: Culturing of intraerythrocytic stage P. falciparum parasites (3D7 strain) was carried out using a method adapted from Trager and Jensen ([97]) and Allen and Kirk ([98]). Parasites were maintained within human, male or female, erythrocytes (typically Group O+, Rh+, 4% hematocrit) in RPMI-1640 medium (Thermo Fisher Scientific, catalogue number 72400120) supplemented with 25 mM HEPES, 11 mM glucose, 200 μM hypoxanthine, 24 μg/mL gentamicin and 6 g/L Albumax II on a horizontally rotating shaking incubator (New Brunswick Innova 42/[…]) at 37°C under an atmosphere of 96% nitrogen, 3% carbon dioxide, and 1% oxygen. To evaluate the effect of each compound on the in vitro proliferation of P. falciparum parasites, a SYBR Safe-based fluorescence assay was used as previously described ([32]). All pantothenamide-mimics tested were initially dissolved to a concentration of 200 mM in DMSO. The final DMSO concentration in the assay never exceeded 0.1% (vol/vol). Assays were performed using the same medium used to culture the parasites. […] Assays were set up with synchronous ring-stage P. falciparum-infected erythrocytes in 96-well microtiter plates. Parasites were synchronized using 5% (wt/vol) sorbitol ([100]). […] P. falciparum-infected erythrocytes incubated in the presence of 0.5 μM chloroquine were used as a non-proliferation control, and those incubated in the absence of compounds and chloroquine served as a 100% parasite proliferation control. To minimize “edge effects” ([101], [102]), the outermost rows and columns of the microtiter plates were not used in the proliferation assays and were filled with 200 μL of medium. The plates were then incubated at 37°C for 96 h under a low-oxygen atmosphere. At the end of the incubation, plates were frozen at -80°C to lyse the cells. […] The fluorescence in the non-proliferation control wells was subtracted from the fluorescence readings in the other wells prior to further analysis. Parasite proliferation, calculated as a percentage of the fluorescence measured in the test wells relative to the fluorescence measured in the 100% parasite proliferation control wells, was then plotted against the logarithm of the compound concentration. […] IC50 values (determined from the sigmoidal curves) were averaged from three independent experiments.

PfPanK [2] = biological target: PfPanK (Plasmodium falciparum, UniProt Q8IL92+Q8ILP4); test: [14C]pantothenate phosphorylation assay in P. falciparum lysates (Somogyi reagent); assay type: biochemical; settings: for inhibition at 2 µM: read-out: Inhibition of pantothenate phosphorylation
Protocol: (§1) Parasite lysates were prepared from saponin-isolated mature trophozoite-stage parasites as described by Saliba et al. ([14]), with modifications. Briefly, a culture with predominantly trophozoite stage parasites was thoroughly mixed with saponin (0.05% [wt/vol] final concentration) and centrifuged at 2,000 × g for 8 min at 4°C. The pelleted parasites were then transferred to a 1.5 mL tube and washed three times (16,000 × g, 1 min each time) with cold malaria saline (125 mM NaCl, 5 mM KCl, 25 mM HEPES, 20 mM glucose, 1 mM MgCl2, pH 7.1). Subsequently, washed saponin-isolated parasites were suspended in 1 mL of 10 mM Tris/Cl, pH 7.4, followed by trituration (10 times) through a SafetyGlide injection needle (25-gauge). The lysates were then centrifuged at 16,000 × g for 30 min at 4°C, and the supernatant was transferred to a new tube. The concentration of the lysates was then determined using the Bradford reagent.
(§2) Phosphorylation of [^14C]pantothenate was determined using a combination of zinc sulphate (ZnSO4) and barium hydroxide (Ba(OH)2) (Somogyi reagent) as previously described ([78]). In the 125 min time course, each reaction (650 µL) contained a final concentration of 50 mM Tris-Cl (pH 7.4), 5 mM ATP, 5 mM MgCl2, 2 µM (0.1 µCi/mL) [^14C]pantothenate, and 60 µg of total parasite lysate. The compounds were added at their 10× antiplasmodial IC50 values or at various concentrations to generate dose–response curves. Mixtures were incubated at 37°C throughout the experiment, and reactions were initiated by the addition of the lysates. A reaction with identical components to the test reactions but lacking the parasite lysate was prepared to serve as a no-phosphorylation negative control, and a reaction with DMSO vehicle control (0.2% vol/vol) served as a positive control. At pre-determined time points, 50 µL of the reaction mixture was transferred in triplicate to wells of a 96-well filter plate with 0.2 µm hydrophilic polyvinylidene fluoride (PVDF) membrane filter (Corning), which had been pre-loaded with 50 µL of 150 mM Ba(OH)2. The reaction mixtures were thoroughly mixed with the Ba(OH)2 in the wells to precipitate the enzyme and terminate the phosphorylation reaction. After all reactions had been terminated, phosphorylated compounds in each well were precipitated by the addition of 50 µL of 150 mM ZnSO4 to generate the Somogyi reagent. The plate was then washed twice with deionized H2O and once with 95% (vol/vol) ethanol using a vacuum manifold to remove the non-phosphorylated [^14C]pantothenate and was subsequently dried overnight at 37°C in a non-humidified incubator. The following day, 30 µL of Microscint-O (PerkinElmer) was added to each well, and the plate was sealed on the top and bottom with TopSeal-A Plus sealing film (PerkinElmer). A Packard Microplate Scintillation and Luminescence Counter was used to measure the radioactivity in each well immediately after the plate had been sealed. To determine the total radioactivity in each phosphorylation assay, 50 µL of each reaction mixture was added to the wells of an OptiPlate-96 microplate (PerkinElmer) in triplicate and was then thoroughly mixed with 150 µL of Microscint-40 (PerkinElmer), and the radioactivity was measured in the same manner. Phosphorylation of [^14C]pantothenate, calculated as a percentage of the radioactivity measured in the test wells relative to the total radioactivity in the phosphorylation assay, was then plotted against the reaction time. Each data set was analyzed by linear regression, from which the phosphorylation rate of each reaction was then determined and expressed as a percentage of the phosphorylation rate of the DMSO-positive control reaction.

PfPanK [3] = test: as above; assay type: biochemical; settings: PfPanK versus HsPanK3 selectivity
Protocol: as §1, §2

[4] = RPMI-1640 containing 1 µM pantothenate, mean ± SEM of three experiments, read-out: IC50 (µM) against Pf at 1 µM Pan
[5] = RPMI-1640 containing 100 µM pantothenate, read-out: IC50 (µM) against Pf at 100 µM Pan

Chain of PfPanK (Plasmodium falciparum, UniProt Q8IL92+Q8ILP4) (Q8ILP4 entry or part of it): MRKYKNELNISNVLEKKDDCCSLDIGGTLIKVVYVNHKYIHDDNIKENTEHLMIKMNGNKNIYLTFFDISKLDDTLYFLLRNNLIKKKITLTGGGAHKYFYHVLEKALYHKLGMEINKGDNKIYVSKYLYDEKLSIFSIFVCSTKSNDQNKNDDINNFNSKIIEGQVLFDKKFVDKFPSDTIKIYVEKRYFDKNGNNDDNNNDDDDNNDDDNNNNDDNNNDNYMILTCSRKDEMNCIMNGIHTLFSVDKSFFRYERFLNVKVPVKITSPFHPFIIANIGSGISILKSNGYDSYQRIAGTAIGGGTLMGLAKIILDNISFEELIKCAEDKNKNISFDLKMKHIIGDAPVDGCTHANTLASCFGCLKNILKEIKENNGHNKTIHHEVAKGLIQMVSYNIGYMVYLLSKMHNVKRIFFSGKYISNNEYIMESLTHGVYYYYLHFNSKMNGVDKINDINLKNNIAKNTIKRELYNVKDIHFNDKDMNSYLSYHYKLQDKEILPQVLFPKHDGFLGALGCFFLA
Chain of PfPanK (Plasmodium falciparum, UniProt Q8IL92+Q8ILP4) (Q8IL92 entry or part of it): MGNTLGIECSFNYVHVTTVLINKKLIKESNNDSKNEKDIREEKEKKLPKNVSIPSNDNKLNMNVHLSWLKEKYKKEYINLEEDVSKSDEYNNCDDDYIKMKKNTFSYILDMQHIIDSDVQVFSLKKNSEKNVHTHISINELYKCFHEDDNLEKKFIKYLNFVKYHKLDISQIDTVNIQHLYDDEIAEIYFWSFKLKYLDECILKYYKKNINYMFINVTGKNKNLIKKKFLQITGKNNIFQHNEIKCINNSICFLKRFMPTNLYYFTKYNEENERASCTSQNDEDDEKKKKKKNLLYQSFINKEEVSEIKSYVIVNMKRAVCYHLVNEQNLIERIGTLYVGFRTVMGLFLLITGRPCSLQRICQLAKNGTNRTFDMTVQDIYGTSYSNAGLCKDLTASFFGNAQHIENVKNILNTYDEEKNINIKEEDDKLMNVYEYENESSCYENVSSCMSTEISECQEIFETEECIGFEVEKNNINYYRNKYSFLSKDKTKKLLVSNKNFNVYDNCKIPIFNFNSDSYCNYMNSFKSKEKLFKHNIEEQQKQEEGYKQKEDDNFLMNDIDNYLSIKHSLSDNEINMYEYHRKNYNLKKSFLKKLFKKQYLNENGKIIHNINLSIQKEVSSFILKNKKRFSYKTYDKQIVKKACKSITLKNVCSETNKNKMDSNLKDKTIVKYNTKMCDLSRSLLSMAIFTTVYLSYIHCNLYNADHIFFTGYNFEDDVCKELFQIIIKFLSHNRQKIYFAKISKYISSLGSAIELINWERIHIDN

| SMILES | IC50 [1, 4] | IC50 [1, 5] | inhibition at 2 µM (PfPanK [2]) | Antiplasmodial IC50 range, in words [1] | Fold by which IC50 at inhibiting PfPanK-mediated pantothenate phosphorylation is lower than Km observed for HsPanK3 (PfPanK [3]) | Fold by which IC50 at inhibiting pantothenate phosphorylation is higher than Km for pantothenate of PfPanK (PfPanK [2]; relative to reported Km 270 ± 95 nM) |
| --- | --- | --- | --- | --- | --- | --- |
| CCCCCc1csc(CNC(=O)[C@H](O)C(C)(C)CO)n1 [Compound 1c] | 2.3 ± 0.2 µM | > 25 µM | > 90% | – | – | – |
| CCCCc1csc(CNC(=O)[C@H](O)C(C)(C)CO)n1 [Compound 1a] | 0.77 ± 0.1 µM | > 6.25 µM | > 90% | sub-micromolar range | – | – |
| CC(C)(CO)[C@@H](O)C(=O)NCc1csc(Cc2ccccc2)n1 [Compound 2c] | 2.4 ± 0.2 µM | > 25 µM | > 90% | – | – | – |
| CC(C)(CO)[C@@H](O)C(=O)NCc1cnc(-c2ccccc2)s1 [Compound 3f] | 8 ± 0.7 µM | > 50 µM | > 90% | – | – | – |
| CC(C)(CO)[C@@H](O)C(=O)NCc1csc(-c2ccccc2)n1 [Compound 2e] | 0.51 ± 0.02 µM | > 6.25 µM | ~80% | sub-micromolar range | 120 fold | approximately 2.1 fold |
| CC(C)(CO)[C@@H](O)C(=O)NCc1nc(CCc2ccccc2)cs1 [Compound 1e] | 0.77 ± 0.09 µM | > 12.5 µM | > 90% | sub-micromolar range | – | – |
